Experimental data: article PMC10065276, “Enhanced therapeutic window for antimicrobial Pept-ins by investigating their structure-activity relationship” (PLOS ONE, 2023)
Like-named read-outs stand apart in the source and are kept apart here. Residues, ends and D or L forms follow the SMILES beside them.

Tested on: E. coli BL21
Outline: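 EUCAST broth microdilution in Mueller-Hinton medium; end-exponential culture diluted to 0.005 McF (~1.5x10^6 CFU/mL) before 1:1 mixing with two-fold peptide dilutions (0.75 to 100 μg/mL), triplicates.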

Compound	BL21 MIC (BL21, 17 h)	also measured
CC(C)C[C@H](NC(=O)CNC(=O)[C@H](CCCNC(=N)N)NC(=O)[C@@H]1CCCN1C(=O)[C@H](CCCNC(=N)N)NC(=O)[C@H](CCCNC(=N)N)NC(=O)[C@@H](NC(=O)[C@H](CC(C)C)NC(=O)[C@H](C)NC(=O)[C@H](CC(C)C)NC(=O)CNC(=O)[C@H](CC(C)C)NC(=O)CNC(=O)[C@@H](N)CCCNC(=N)N)C(C)C)C(=O)NCC(=O)N[C@@H](CC(C)C)C(=O)N[C@@H](C)C(=O)N[C@@H](C)C(=O)N[C@H](C(=O)N[C@@H](CCCNC(=N)N)C(=O)N[C@@H](CCCNC(=N)N)C(=O)O)C(C)C [Peptide P2_L18A] (H-RGLGLALVRRPRGLGLAAVRR-OH)	50.00 µg/mL	–
CC(C)C[C@H](NC(=O)CNC(=O)[C@H](CC(N)=O)NC(=O)[C@@H]1CCCN1C(=O)[C@H](CC(N)=O)NC(=O)[C@H](CC(N)=O)NC(=O)[C@@H](NC(=O)[C@H](CC(C)C)NC(=O)[C@H](C)NC(=O)[C@H](CC(C)C)NC(=O)CNC(=O)[C@H](CC(C)C)NC(=O)CNC(=O)[C@@H](N)CC(N)=O)C(C)C)C(=O)NCC(=O)N[C@@H](CC(C)C)C(=O)N[C@@H](C)C(=O)N[C@@H](CC(C)C)C(=O)N[C@H](C(=O)N[C@@H](CC(N)=O)C(=O)N[C@@H](CC(N)=O)C(=O)O)C(C)C [Peptide P2_N] (H-NGLGLALVNNPNGLGLALVNN-OH)	–	BL21 MIC (S1 Table, gatekeeper modification, broth microdilution, MH medium, 37°C, 17 h): >100.00 µg/mL
CC(C)C[C@H](NC(=O)CNC(=O)[C@H](CCCNC(=N)N)NC(=O)[C@@H]1CCCN1C(=O)[C@H](CCCNC(=N)N)NC(=O)[C@H](C)NC(=O)[C@@H](NC(=O)[C@H](CC(C)C)NC(=O)[C@H](C)NC(=O)[C@H](CC(C)C)NC(=O)CNC(=O)[C@H](CC(C)C)NC(=O)CNC(=O)[C@@H](N)CCCNC(=N)N)C(C)C)C(=O)NCC(=O)N[C@@H](CC(C)C)C(=O)N[C@@H](C)C(=O)N[C@@H](CC(C)C)C(=O)N[C@H](C(=O)N[C@@H](CCCNC(=N)N)C(=O)N[C@@H](CCCNC(=N)N)C(=O)O)C(C)C [Peptide P2_R9A] (H-RGLGLALVARPRGLGLALVRR-OH)	12.50 µg/mL	–
CC(C)C[C@H](NC(=O)CNC(=O)[C@H](CCCNC(=N)N)NC(=O)[C@@H]1CCCN1C(=O)[C@H](CCCNC(=N)N)NC(=O)[C@H](CCCNC(=N)N)NC(=O)[C@@H](NC(=O)[C@H](CC(C)C)NC(=O)[C@H](C)NC(=O)[C@H](CC(C)C)NC(=O)CNC(=O)[C@H](CC(C)C)NC(=O)CNC(=O)[C@@H](N)CCCNC(=N)N)C(C)C)C(=O)NCC(=O)N[C@@H](CC(C)C)C(=O)N[C@@H](C)C(=O)N[C@@H](CC(C)C)C(=O)N[C@H](C(=O)N[C@@H](C)C(=O)N[C@@H](CCCNC(=N)N)C(=O)O)C(C)C [Peptide P2_R20A] (H-RGLGLALVRRPRGLGLALVAR-OH)	6.25 µg/mL	–
CC(C)C[C@H](NC(=O)CNC(=O)[C@H](CCCNC(=N)N)NC(=O)[C@@H]1CCCN1C(=O)[C@H](CCCNC(=N)N)NC(=O)[C@H](CCCNC(=N)N)NC(=O)[C@H](C)NC(=O)[C@H](CC(C)C)NC(=O)[C@H](C)NC(=O)[C@H](CC(C)C)NC(=O)CNC(=O)[C@H](CC(C)C)NC(=O)CNC(=O)[C@@H](N)CCCNC(=N)N)C(=O)NCC(=O)N[C@@H](CC(C)C)C(=O)N[C@@H](C)C(=O)N[C@@H](CC(C)C)C(=O)N[C@H](C(=O)N[C@@H](CCCNC(=N)N)C(=O)N[C@@H](CCCNC(=N)N)C(=O)O)C(C)C [Peptide P2_V8A] (H-RGLGLALARRPRGLGLALVRR-OH)	25.00 µg/mL	–
CC(C)C[C@H](NC(=O)CNC(=O)[C@H](CCCNC(=N)N)NC(=O)[C@@H]1CCCN1C(=O)[C@H](CCCNC(=N)N)NC(=O)[C@H](CCCNC(=N)N)NC(=O)[C@@H](NC(=O)[C@H](CC(C)C)NC(=O)[C@H](C)NC(=O)[C@H](CC(C)C)NC(=O)CNC(=O)[C@H](CC(C)C)NC(=O)CNC(=O)[C@@H](N)CCCNC(=N)N)C(C)C)C(=O)NCC(=O)N[C@@H](CC(C)C)C(=O)N[C@@H](C)C(=O)N[C@@H](CC(C)C)C(=O)N[C@@H](C)C(=O)N[C@@H](CCCNC(=N)N)C(=O)N[C@@H](CCCNC(=N)N)C(=O)O [Peptide P2_V19A] (H-RGLGLALVRRPRGLGLALARR-OH)	25.00 µg/mL	–
CC(C)C[C@H](NC(=O)CNC(=O)[C@H](CCCNC(=N)N)NC(=O)[C@@H]1CSSC[C@H](NC(=O)[C@@H](NC(=O)[C@H](CC(C)C)NC(=O)[C@H](C)NC(=O)[C@H](CC(C)C)NC(=O)CNC(=O)[C@H](CC(C)C)NC(=O)CNC(=O)[C@@H](N)CCCNC(=N)N)C(C)C)C(=O)N[C@@H](CCCNC(=N)N)C(=O)N[C@@H](CCCNC(=N)N)C(=O)N2CCC[C@H]2C(=O)N1)C(=O)NCC(=O)N[C@@H](CC(C)C)C(=O)N[C@@H](C)C(=O)N[C@@H](CC(C)C)C(=O)N[C@H](C(=O)N[C@@H](CCCNC(=N)N)C(=O)N[C@@H](CCCNC(=N)N)C(=O)O)C(C)C [Peptide P2_var9]	–	BL21 MIC, SS bond (BL21, 17 h): 6.25 µg/mL; BL21 MIC, no SS bond (BL21, 17 h): 6.25 µg/mL
CC[C@H](C)[C@H](NC(=O)CNC(=O)[C@H](CC(C)C)NC(=O)[C@@H](N)CCCNC(=N)N)C(=O)N[C@@H](C)C(=O)N[C@H](C(=O)N[C@@H](C)C(=O)N[C@@H](C)C(=O)N[C@@H](CCCNC(=N)N)C(=O)N[C@@H](CCCNC(=N)N)C(=O)N1CCC[C@H]1C(=O)N[C@@H](CCCNC(=N)N)C(=O)N[C@@H](CC(C)C)C(=O)NCC(=O)N[C@H](C(=O)N[C@@H](C)C(=O)N[C@H](C(=O)N[C@@H](C)C(=O)N[C@@H](CC(C)C)C(=O)N[C@@H](CCCNC(=N)N)C(=O)N[C@@H](CCCNC(=N)N)C(=O)O)C(C)C)[C@@H](C)CC)C(C)C [Peptide P33-8LA] (H-RLGIAVAARRPRLGIAVALRR-OH)	6.25 µg/mL	–
CC[C@H](C)[C@H](NC(=O)CNC(=O)[C@H](CC(C)C)NC(=O)[C@H](CCCNC(=N)N)NC(=O)[C@@H]1CCCN1C(=O)[C@H](CCCNC(=N)N)NC(=O)[C@H](CCCNC(=N)N)NC(=O)[C@H](CC(C)C)NC(=O)[C@H](C)NC(=O)[C@@H](NC(=O)[C@H](C)NC(=O)[C@@H](NC(=O)[C@H](C)NC(=O)[C@H](CC(C)C)NC(=O)[C@@H](N)CCCNC(=N)N)[C@@H](C)CC)C(C)C)C(=O)N[C@@H](C)C(=O)N[C@H](C(=O)N[C@@H](C)C(=O)N[C@@H](CC(C)C)C(=O)N[C@@H](CCCNC(=N)N)C(=O)N[C@@H](CCCNC(=N)N)C(=O)O)C(C)C [Peptide P33-G3A] (H-RLAIAVALRRPRLGIAVALRR-OH)	6.25 µg/mL	–
CC[C@H](C)[C@H](NC(=O)CNC(=O)[C@H](CC(C)C)NC(=O)[C@@H](N)CCCNC(=N)N)C(=O)N[C@@H](C)C(=O)N[C@H](C(=O)N[C@@H](C)C(=O)N[C@@H](CC(C)C)C(=O)N[C@@H](CCCNC(=N)N)C(=O)N[C@@H](CCCNC(=N)N)C(=O)N1CCC[C@H]1C(=O)N[C@@H](CCCNC(=N)N)C(=O)N[C@@H](CC(C)C)C(=O)N[C@@H](C)C(=O)N[C@H](C(=O)N[C@@H](C)C(=O)N[C@H](C(=O)N[C@@H](C)C(=O)N[C@@H](CC(C)C)C(=O)N[C@@H](CCCNC(=N)N)C(=O)N[C@@H](CCCNC(=N)N)C(=O)O)C(C)C)[C@@H](C)CC)C(C)C [Peptide P33-G14A] (H-RLGIAVALRRPRLAIAVALRR-OH)	6.25 µg/mL	–
CC[C@H](C)[C@H](NC(=O)CNC(=O)[C@H](CC(C)C)NC(=O)[C@H](CCCNC(=N)N)NC(=O)[C@@H]1CCCN1C(=O)[C@H](CCCNC(=N)N)NC(=O)[C@H](CCCNC(=N)N)NC(=O)[C@H](CC(C)C)NC(=O)[C@H](C)NC(=O)[C@@H](NC(=O)[C@H](C)NC(=O)[C@H](C)NC(=O)CNC(=O)[C@H](CC(C)C)NC(=O)[C@@H](N)CCCNC(=N)N)C(C)C)C(=O)N[C@@H](C)C(=O)N[C@H](C(=O)N[C@@H](C)C(=O)N[C@@H](CC(C)C)C(=O)N[C@@H](CCCNC(=N)N)C(=O)N[C@@H](CCCNC(=N)N)C(=O)O)C(C)C [Peptide P33-I4A] (H-RLGAAVALRRPRLGIAVALRR-OH)	12.50 µg/mL	–
CC[C@H](C)[C@H](NC(=O)CNC(=O)[C@H](CC(C)C)NC(=O)[C@@H](N)CCCNC(=N)N)C(=O)N[C@@H](C)C(=O)N[C@H](C(=O)N[C@@H](C)C(=O)N[C@@H](CC(C)C)C(=O)N[C@@H](CCCNC(=N)N)C(=O)N[C@@H](CCCNC(=N)N)C(=O)N1CCC[C@H]1C(=O)N[C@@H](CCCNC(=N)N)C(=O)N[C@@H](CC(C)C)C(=O)NCC(=O)N[C@@H](C)C(=O)N[C@@H](C)C(=O)N[C@H](C(=O)N[C@@H](C)C(=O)N[C@@H](CC(C)C)C(=O)N[C@@H](CCCNC(=N)N)C(=O)N[C@@H](CCCNC(=N)N)C(=O)O)C(C)C)C(C)C [Peptide P33-I15A] (H-RLGIAVALRRPRLGAAVALRR-OH)	12.50 µg/mL	–
CC[C@H](C)[C@H](NC(=O)CNC(=O)[C@H](CC(C)C)NC(=O)[C@H](CCCNC(=N)N)NC(=O)[C@@H]1CCCN1C(=O)[C@H](CCCNC(=N)N)NC(=O)[C@H](CCCNC(=N)N)NC(=O)[C@H](CC(C)C)NC(=O)[C@H](C)NC(=O)[C@@H](NC(=O)[C@H](C)NC(=O)[C@@H](NC(=O)CNC(=O)[C@H](C)NC(=O)[C@@H](N)CCCNC(=N)N)[C@@H](C)CC)C(C)C)C(=O)N[C@@H](C)C(=O)N[C@H](C(=O)N[C@@H](C)C(=O)N[C@@H](CC(C)C)C(=O)N[C@@H](CCCNC(=N)N)C(=O)N[C@@H](CCCNC(=N)N)C(=O)O)C(C)C [Peptide P33-L2A] (H-RAGIAVALRRPRLGIAVALRR-OH)	12.50 µg/mL	–
CC[C@H](C)[C@H](NC(=O)CNC(=O)[C@H](C)NC(=O)[C@H](CCCNC(=N)N)NC(=O)[C@@H]1CCCN1C(=O)[C@H](CCCNC(=N)N)NC(=O)[C@H](CCCNC(=N)N)NC(=O)[C@H](CC(C)C)NC(=O)[C@H](C)NC(=O)[C@@H](NC(=O)[C@H](C)NC(=O)[C@@H](NC(=O)CNC(=O)[C@H](CC(C)C)NC(=O)[C@@H](N)CCCNC(=N)N)[C@@H](C)CC)C(C)C)C(=O)N[C@@H](C)C(=O)N[C@H](C(=O)N[C@@H](C)C(=O)N[C@@H](CC(C)C)C(=O)N[C@@H](CCCNC(=N)N)C(=O)N[C@@H](CCCNC(=N)N)C(=O)O)C(C)C [Peptide P33-L13A] (H-RLGIAVALRRPRAGIAVALRR-OH)	6.25 µg/mL	–
